Laboratory results reported in US11352345B2, “Cyclohexyl acid pyrazole azoles as LPA antagonists” (BRISTOL-MYERS SQUIBB COMPANY, priority 2017, dated 2022).
Where a name gives a salt, the structure may show the parent alone.

Biological target: T1, human LPA1 (Homo sapiens, UniProt Q92633)
T1 construct: expressed in transfected cells; host or cells: Chinese hamster ovary (CHO) cells
Assay: LPA1 functional antagonist assay (calcium flux)
Type: cell-based
Conditions: Chinese hamster ovary cells overexpressing human LPA1; calcium flux induced by 10 nM LPA; read-out: hLPA1 IC50
Protocol: The effectiveness of compounds of the present invention as LPA1 inhibitors can be determined in an LPA1 functional antagonist assay as follows:
Chinese hamster ovary cells overexpressing human LPA1 were plated overnight (15,000 cells/well) in poly-D-lysine coated 384-well microplates (Greiner bio-one, Cat #781946) in DMEM/F12 medium (Gibco, Cat #11039). Following overnight culture, cells were loaded with calcium indicator dye (AAT Bioquest Inc, Cat #34601) for 30 minutes at 37° C. The cells were then equilibrated to room temperature for 30 minutes before the assay. Test compounds solubilized in DMSO were transferred to 384 well non-binding surface plates (Corning, Cat #3575) using the Labcyte Echo acoustic dispense and diluted with assay buffer [1×HBSS with calcium/magnesium (Gibco Cat #14025-092), 20 mM HEPES (Gibco Cat #15630-080) and 0.1% fatty acid free BSA (Sigma Cat #A9205)] to a final concentration of 0.5% DMSO. Diluted compounds were added to the cells by FDSS6000 (Hamamatsu) at final concentrations ranging from 0.08 nM to 5 μM. and were then incubated for 20 min at room temperature at which time LPA (Avanti Polar Lipids Cat #857130C) was added at final concentrations of 10 nM to stimulate the cells.
The compound IC50 value was defined as the concentration of test compound which inhibited 50% of the calcium flux induced by LPA alone. IC50 values were determined by fitting data to a 4-parameter logistic equation (GraphPad Prism, San Diego Calif.).

T1 sequence (Q92633 whole entry): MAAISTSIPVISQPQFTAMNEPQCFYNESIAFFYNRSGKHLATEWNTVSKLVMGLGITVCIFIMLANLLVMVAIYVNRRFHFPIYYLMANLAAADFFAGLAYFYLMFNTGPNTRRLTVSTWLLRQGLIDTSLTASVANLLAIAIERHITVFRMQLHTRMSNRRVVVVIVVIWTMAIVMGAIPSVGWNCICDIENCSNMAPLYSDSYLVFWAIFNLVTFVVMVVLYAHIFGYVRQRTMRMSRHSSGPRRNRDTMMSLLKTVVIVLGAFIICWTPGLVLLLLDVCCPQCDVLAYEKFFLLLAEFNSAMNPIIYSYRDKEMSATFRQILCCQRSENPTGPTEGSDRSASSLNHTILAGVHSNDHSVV

Structure (SMILES)	IC50 [nM]
Cc1nc(-c2cnn(C)c2CNc2cnn(-c3ccccc3)n2)ncc1O[C@H]1CCC[C@H](C(=O)O)C1 [Example 1, (1S,3S)-3-((4-methyl-2-(1-methyl-5-(((2-phenyl-2H-1,2,3-triazol-4-yl)amino)methyl)-1H-pyrazol-4-yl)pyrimidin-5-yl)oxy)cyclohexane-1-carboxylicacid]	35
Cc1nc(-c2cnn(C)c2CNc2nc(C(C)C)ns2)ncc1O[C@H]1CCC[C@H](C(=O)O)C1 [Example 2, (1S,3S)-3-((2-(5-(((3-isopropyl-1,2,4-thiadiazol-5-yl)amino)methyl)-1-methyl-1H-pyrazol-4-yl)-4-methylpyrimidin-5-yl)oxy)cyclohexane-1-carboxylic acid]	1860
CCCc1nsc(Nc2c(-c3ncc(O[C@H]4CCC[C@H](C(=O)O)C4)c(C)n3)cnn2C)n1 [Example 3, (1S,3S)-3-((4-methyl-2-(1-methyl-5-((3-propyl-1,2,4-thiadiazol-5-yl)amino)-1H-pyrazol-4-yl)pyrimidin-5-yl)oxy)cyclohexane-1-carboxylic acid]	437
Cc1nc(-c2cnn(C)c2CNc2noc(CCC(C)C)n2)ncc1O[C@H]1CCC[C@H](C(=O)O)C1 [Example 4, (1S,3S)-3-((2-(5-(((5-isopentyl-1,2,4-oxadiazol-3-yl)amino)methyl)-1-methyl-1H-pyrazol-4-yl)-4-methylpyrimidin-5-yl)oxy)cyclohexane-1-carboxylic acid, bis TFA salt]	10
Cc1nc(-c2cnn(C)c2Nc2nc(C3CC3)ns2)ncc1O[C@H]1CCC[C@H](C(=O)O)C1 [Example 5]	341

Next, values leading:

IC50 [nM]	Structure (SMILES)
31	CCCCc1nc(NCc2c(-c3ncc(O[C@H]4CCC[C@H](C(=O)O)C4)c(C)n3)cnn2C)no1 [Example 6]
9	Cc1nc(-c2cnn(C)c2CNc2noc(CC3CCC3)n2)ncc1O[C@H]1CCC[C@H](C(=O)O)C1 [Example 7]
91	Cc1nc(-c2cnn(C)c2CNc2ncn(-c3ccccc3)n2)ncc1O[C@H]1CCC[C@H](C(=O)O)C1 [Example 8]
636	Cc1nc(-c2cnn(C)c2Cn2cc(CC3CC3)nn2)ncc1O[C@H]1CCC[C@H](C(=O)O)C1 [Example 9, (1S,3S)-3-((2-(5-((4-(cyclopropylmethyl)-1H-1,2,3-triazol-1-yl)methyl)-1-methyl-1H-pyrazol-4-yl)-4-methylpyrimidin-5-yl)oxy)cyclohexane-1-carboxylic acid]
26	CCc1nc(-c2cnn(C)c2Cn2cc(Cc3ccccc3)nn2)ncc1O[C@H]1CCC[C@H](C(=O)O)C1 [Example 10]
399	CCCCc1cn(Cc2c(-c3ncc(O[C@H]4CCC[C@H](C(=O)O)C4)c(CC)n3)cnn2C)nn1 [Example 11]
230	CCc1nc(-c2cnn(C)c2Cn2cc(CC3CC3)nn2)ncc1O[C@H]1CCC[C@H](C(=O)O)C1 [Example 12]
